From patent publication US9453008B2, “Antithrombotic and antiatherosclerotic agent and method for producing same (variants)” (PROTON OOO, priority 2011, dated 2016)
One block for each molecule: values may come before it.

Experiments:
[1] = tested on: spontaneously hypertensive (SHT) rats; assay: Blood pressure in narcotized SHT rats, intravenous administration; type: in vivo, rat
Method: (§1) The experiments were performed on spontaneously hypertensive (SHT) and normotensive (NT) narcotized male rats using intravenous administration of the tested compounds. The ability of the compound to reduce arterial blood pressure (BP) in SHT rats and prevent spasmogenic reactions to noradrenalin (NA) and angiotensin I (AI).
The compound of formula I was used as a solution in 3% aqueous DMSO. Sodium nitroprusside and nitroglycerin were used as reference drugs.
The administration of the compound of formula I in dose range 0.01-0.1-0.5 and 1.0 mg/kg has exerted dose-dependent antihypertensive effect ranging in time from 30-40 s to 60 min and more.

[2] = tested on: pressor effect of noradrenaline; assay: Pressor effect of noradrenaline after intravenous administration in normotensive narcotized rats; type: in vivo, rat
Method: as §1
(§2) The effects of the compound of formula I on the pressor effects of noradrenaline (NA, 10-15 μg/kg), mesatonum (M, 5 μg/kg) and angiotensin (AI, 5 μg/kg) were studied on normotensive narcotized […]. Antihypertensive action of the compound of formula I was assessed relative to the pressor effects of the control administration of the aforementioned compounds.

[3] = tested on: pressor effect of angiotensin I; assay: Pressor effect of angiotensin I after intravenous administration in normotensive narcotized rats; type: in vivo, rat
Method: as §1, §2

[4] = tested on: non-narcotized SHT rats; assay: Blood pressure in non-narcotized SHT rats, intragastric administration (non-invasive BP measurement); type: in vivo, rat; settings: 10 mg/kg orally, 0 - absence of effect
Method: In experiments on non-narcotized SHT rats intragastric administration of the compound of formula I has caused dose-dependent reduction of BP, the duration of which was increased correspondingly with dose increase (maximal duration of effect 5 hours after single administration of 50 mg/kg dose, Table 3).

[5] = higher doses (above 0.01 mg/kg) intravenous

melting point: 237 °C (dec.)
Structure (SMILES): CN1CC(C(O)C(O)C(O)CO)OC1=C(C#N)C=C1Nc2ccccc2C1=O (stereo not shown) (hydrate or solvate) [X, 2-[2-Cyano-2-[3-methyl-5-(1,2,3,4-tetrahydroxybutyl)oxazolidin-2-ylidene]ethylidene]indolin-3-one]

melting point: 222 to 226 °C (dec.)
Structure (SMILES): CN1CCOC1=C(C#N)C=C1Nc2ccccc2C1=O [IX, 2-[2-Cyano-2-(3-methyloxazolidin-2-ylidene)ethylidene]indolin-3-one]

Structure (SMILES): O=[N+]([O-])OCC(CO[N+](=O)[O-])O[N+](=O)[O-] [Nitroglycerin, reference compound]
Duration of BP reduction ([1]; 0.01 mg/kg dose intravenous): 30 to 40 s | Reduction of BP ([1]; 0.01 mg/kg dose intravenous): 10-15 mmHg | Reduction of BP, mmHg (Δ) ([1]; 0.01 mg/kg intravenously, 10-20 s): −5 mmHg | Reduction of BP, mmHg (Δ) ([1]; 0.01 mg/kg intravenously, 5 min): −10 ± 3 mmHg | Reduction of BP, mmHg (Δ) ([1]; 0.01 mg/kg intravenously, 30 min): −3 mmHg | Reduction of BP, mmHg (Δ) ([1]; 0.1 mg/kg intravenously, 10-20 s): −7 ± 3 mmHg | Reduction of BP, mmHg (Δ) ([1]; 0.1 mg/kg intravenously, 5 min): −20 ± 5 mmHg | Reduction of BP, mmHg (Δ) ([1]; 0.1 mg/kg intravenously, 30 min): −5 mmHg | Reduction of BP, mmHg (Δ) ([1]; 0.5 mg/kg intravenously, 10-20 s): −12 ± 3 mmHg | Reduction of BP, mmHg (Δ) ([1]; 0.5 mg/kg intravenously, 5 min): −25 ± 7 mmHg | Reduction of BP, mmHg (Δ) ([1]; 0.5 mg/kg intravenously, 30 min): −5 mmHg | Reduction of BP, mmHg (Δ) ([1]; 1.0 mg/kg intravenously, 10-20 s): −10 ± 3 mmHg | Reduction of BP, mmHg (Δ) ([1]; 1.0 mg/kg intravenously, 5 min): −25 ± 8 mmHg | Reduction of BP, mmHg (Δ) ([1]; 1.0 mg/kg intravenously, 30 min): −7 ± 3 mmHg | Duration of BP reduction [1, 5]: 300 to 360 s | Reduction of BP [1, 5]: 20-25 mmHg | Inhibition of pressor reaction (%) induced by Noradrenaline ([2]; 0.5 mg/kg intravenous): 20-25% | Inhibition of pressor reaction (%) induced by Noradrenaline ([2]; 1.0 mg/kg intravenous): 40-50% | Inhibition of pressor reaction (%) induced by Angiotensin I ([3]; 0.5 mg/kg intravenous, 0 - absence of effect): 0% | Inhibition of pressor reaction (%) induced by Angiotensin I ([3]; 1.0 mg/kg intravenous): 25-30% | Reduction of BP, mmHg ([4]; time column 1, 1 h after dosing): 0 mmHg | Reduction of BP, mmHg ([4]; time column 2, 2 h after dosing): 0 mmHg | Reduction of BP, mmHg ([4]; time column 3, 3 h after dosing): 0 mmHg | Reduction of BP, mmHg ([4]; time column 4, 4 h after dosing): 0 mmHg | Reduction of BP, mmHg ([4]; time column 5, 5 h after dosing): 0 mmHg | Reduction of BP, mmHg ([4]; time column 6, 6 h after dosing): 0 mmHg
